{
  "source": "patent US20080201790A1",
  "about": "“Method and product for regulating cell responsiveness to external signals” (priority 1993, published 2008)",
  "tested_on": "B-Raf",
  "assay": "Raf activation assay in L929 cells, B-Raf",
  "assay_type": "cell-based, murine",
  "method": "Cell lines and culture. L929 cells (ATCC CCL1 were maintained in Dulbecco's modified Eagle's medium with 5% newborn calf serum and 5% bovine calf serum (BCS) supplemented with 100 ug/ml streptomycin and 100 U/ml penicillin. The cells were grown in 10 cm dishes at 37° C. in 7.5% CO2. Cells were made quiescent where indicated by incubation in Dulbecco's modified Eagle's medium and 0.1% bovine serum albumin for 24 h. Recombinant murine TNFα and recombinant human bFGF (147aa) were from R&D Systems, Minneapolis, Minn. Cells were pretreated where indicated with the MEK-1 inhibitor PD#098059 (Parke-Davis Pharmaceutical Corp. Ann Arbor, Mich.) for 1 h at 37° C. Cells were stimulated by incubation with the indicated cytokine or growth factor for various times at 37° C. […] JNK activity was measured using a solid state kinase assay in which glutathione S-transferase-c-Jun (1-79) (GST-JUN) cound to glutathione-Sepharose 4B beads was used to affinity purify JNK and then JNK activity was measured in an in vitro kinase assay using the sepharose bound GST-Jun as a substrate (Hibi, M., et al. (1993) Genes & Development 7:2135-2148). […] MAPK Assay MAPK activity was measured exactly as described previously (Gardner, A. M., et al. (1994) Meth. Enzymol. 238:258-270) with the exception that MonoQ FPLC fractionation was replaced by step elution from a DEAE-Sephacel column using 0.5 M NaCl in loading buffer. […]",
  "data": [
    {"substance": "TNFα", "values": [
      {"measurement": "activation of B-Raf (phosphorylation of kinase-inactive MEK-1)", "result": "does not significantly activate either isoform of Raf"}
    ]},
    {"substance": "bFGF: recombinant human bFGF (147aa), basic fibroblast growth factor", "values": [
      {"measurement": "activation of B-Raf (phosphorylation of kinase-inactive MEK-1)", "result": "activation of both B-Raf and C-Raf"}
    ]}
  ]
}
